Measured values published in US7470707B2, “Crystalline monohydrate clopidogrel naphthalenedisulfonate and process of preparation” (Hanmi Pharm. Co., Ltd, priority 2004, dated 2008).
Counter-ions that a name gives are not always drawn. Like-named read-outs stand apart in the source and are kept apart here.

Settings: 60±2° C., 75±5% RH; for Relative amount compared to the initial amount: HPLC condition A; for Amount of hydrolyzed impurities (formula (III)) of an acid addition salt of clopidogrel: HPLC condition B; for Amount of levorotatory isomers (formula (IV)) of an acid addition salt of clopidogrel: HPLC condition C
Experimental: Condition A: For the measurement of an assay of an acid addition salt of clopidogrel
• Column: Kromasil C18, 5 μm (250 mm×4.6 mm) • Detector: 220 nm • Flow rate: 1.5 ml/minute • Mobile phase: Na2HPO4—NaH2PO4 buffer solution: THF: CH3CN=5:2:3 (v/v) Condition B: For the measurement of an amount of hydrolyzed impurities of an acid addition salt of clopidogrel • Column: Capcellpak C18 MG, 5 μm (250 mm×4.6 mm) • Detector: 210 nm • Flow rate: 1.0 ml/min. • Mobile phase: KH2PO4 buffer solution/CH3CN (70/30): KH2PO4 buffer solution/CH3CN (30/70)=0:100 100:0 (v/v, gradient elution) Condition C: For the measurement of an optical purity of an acid addition salt of clopidogrel • Column: Chiralpak AD, 5 μm (250 mm×4.6 mm) • Detector: 210 nm • Flow rate: 1.0 ml/min. • Mobile phase: n-hexane: isopropanol=90:10 (v/v)
The assay of the acid addition salt of clopidogrel was measured using HPLC condition A, the amount of hydrolyzed impurities of the acid addition salt of clopidogrel was measured using HPLC condition B, the optical purity of the acid addition salt of clopidogrel (i.e., the amount of the levorotatory isomers) was measured using the HPLC condition C, and the water content of the acid addition salt of clopidogrel was measured with a Karl-Fisher titrator.

Relative amount compared to the initial amount (0 day)	Amount of hydrolyzed impurities (formula (III)) of an acid addition salt of clopidogrel (0 day)	Amount of levorotatory isomers (formula (IV)) of an acid addition salt of clopidogrel (0 day)	Relative amount compared to the initial amount (7 days)	Amount of levorotatory isomers (formula (IV)) of an acid addition salt of clopidogrel (7 days)	Relative amount compared to the initial amount (14 days)	Amount of hydrolyzed impurities (formula (III)) of an acid addition salt of clopidogrel (14 days)	Amount of levorotatory isomers (formula (IV)) of an acid addition salt of clopidogrel (14 days)	Relative amount compared to the initial amount (21 days)	Amount of levorotatory isomers (formula (IV)) of an acid addition salt of clopidogrel (21 days)	Relative amount compared to the initial amount (28 days)	Amount of hydrolyzed impurities (formula (III)) of an acid addition salt of clopidogrel (28 days)	Amount of levorotatory isomers (formula (IV)) of an acid addition salt of clopidogrel (28 days)	Relative amount compared to the initial amount (35 days)	Amount of hydrolyzed impurities (formula (III)) of an acid addition salt of clopidogrel (35 days)	Amount of levorotatory isomers (formula (IV)) of an acid addition salt of clopidogrel (35 days)	SMILES	also measured
100%	0.0%	0.35%	99.6%	0.35%	98.7%	0.63%	0.40%	97.7%	0.49%	94.4%	2.0%	0.67%	87.0%	4.8%	1.08%	COC(=O)[C@H](c1ccccc1Cl)N1CCc2sccc2C1 [Hydrogen sulfate, Clopidogrel Hydrogen Sulfate, reference compound]	
100%	0.0%															COC(=O)[C@H](c1ccccc1Cl)N1CCc2sccc2C1 [1,5-Naphthalenedisulfonate monohydrate, Clopidogrel 1,5-naphthalenedisulfonate Monohydrate]	Amount of levorotatory isomers (formula (IV)) of an acid addition salt of clopidogrel (0 day, Monohydrate): 0.10%; Relative amount compared to the initial amount (7 days, Monohydrate): 100%; Amount of levorotatory isomers (formula (IV)) of an acid addition salt of clopidogrel (7 days, Monohydrate): 0.10%; Relative amount compared to the initial amount (14 days, Monohydrate): 100%; Amount of hydrolyzed impurities (formula (III)) of an acid addition salt of clopidogrel (14 days, Monohydrate): 0.02%; Amount of levorotatory isomers (formula (IV)) of an acid addition salt of clopidogrel (14 days, Monohydrate): 0.10%; Relative amount compared to the initial amount (21 days, Monohydrate): 100%; Amount of levorotatory isomers (formula (IV)) of an acid addition salt of clopidogrel (21 days, Monohydrate): 0.09%; Relative amount compared to the initial amount (28 days, Monohydrate): 99.9%; Amount of hydrolyzed impurities (formula (III)) of an acid addition salt of clopidogrel (28 days, Monohydrate): 0.04%; Amount of levorotatory isomers (formula (IV)) of an acid addition salt of clopidogrel (28 days, Monohydrate): 0.11%; Relative amount compared to the initial amount (35 days, Monohydrate): 99.9%; Amount of hydrolyzed impurities (formula (III)) of an acid addition salt of clopidogrel (35 days, Monohydrate): 0.05%; Amount of levorotatory isomers (formula (IV)) of an acid addition salt of clopidogrel (35 days, Monohydrate): 0.10%
100%	0.0%	0.10%	99.1%	0.10%	99.3%	0.12%	0.10%	99.1%	0.10%	99.0%	0.16%	0.11%	99.2%	0.18%	0.13%	COC(=O)[C@H](c1ccccc1Cl)N1CCc2sccc2C1 [2-Naphthalenesulfonate, Clopidogrel 2-naphthalenesulfonate]	
